Experimental data as given in ChEMBL document CHEMBL1147324, “The isolation and structure of modified bioactive nucleosides from Jaspis johnstoni” (J Nat Prod, 1989).
≈ marks a conversion by molar mass, not a printed value.

Columns and labels:
[1] = system: L1210; test: Cytotoxicity against mouse L1210 cells; type: functional, cell-based
[2] = system: L1210; test: Antitumor activity against mouse L1210 cells implanted in mouse assessed as increase in survival; type: functional
[3] = system: Candida albicans; test: Antifungal activity against Candida albicans at 1.25 mg/6.4 mm disk; type: functional

| Compound | IC50 [1] | Activity [2] | inhibition zone (IZ) [3] |
| --- | --- | --- | --- |
| COC(=O)c1cn([C@@H]2O[C@H](CO)[C@@H](O)[C@H]2O)c2ncnc(N)c12 | 0.027 µg/mL (≈ 0.0833 µM) | 39% | – |
| N#Cc1cn([C@@H]2O[C@H](CO)[C@@H](O)[C@H]2O)c2ncnc(N)c12 [TOYOCAMYCIN] | 0.0026 µg/mL (≈ 0.00893 µM) | – | 13 mm |
